Measured values: publication PMC9598880, “Activity of a Novel Anti-Inflammatory Agent F-3,6′-dithiopomalidomide as a Treatment for Traumatic Brain Injury” (Biomedicines, 2022)

Target: T1, cereblon (Homo sapiens, UniProt Q96SW2)
T1 construct: gene CRBN; CRBN/DDB1−CUL4A−Rbx1 complex (BPS Bioscience catalog no. 79770); with DDB1−CUL4A−Rbx1; BRD3
Assay: AlphaScreen bead-based cereblon/BRD3 binding assay (called FRET in the text)

T1 sequence (Q96SW2 whole entry): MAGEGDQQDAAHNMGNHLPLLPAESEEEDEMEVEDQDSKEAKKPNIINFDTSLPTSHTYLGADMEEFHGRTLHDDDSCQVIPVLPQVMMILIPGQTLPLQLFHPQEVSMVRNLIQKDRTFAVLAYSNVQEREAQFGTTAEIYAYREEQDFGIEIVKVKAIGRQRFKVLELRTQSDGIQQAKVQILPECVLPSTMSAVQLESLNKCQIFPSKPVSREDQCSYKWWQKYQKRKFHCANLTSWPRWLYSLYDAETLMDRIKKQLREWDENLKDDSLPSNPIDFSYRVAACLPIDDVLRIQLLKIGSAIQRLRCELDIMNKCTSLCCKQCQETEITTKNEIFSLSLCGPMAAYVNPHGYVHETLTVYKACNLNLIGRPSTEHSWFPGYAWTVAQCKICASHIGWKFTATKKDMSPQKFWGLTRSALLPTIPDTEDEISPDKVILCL
T1 sequence (Q16531 2-1140 partner): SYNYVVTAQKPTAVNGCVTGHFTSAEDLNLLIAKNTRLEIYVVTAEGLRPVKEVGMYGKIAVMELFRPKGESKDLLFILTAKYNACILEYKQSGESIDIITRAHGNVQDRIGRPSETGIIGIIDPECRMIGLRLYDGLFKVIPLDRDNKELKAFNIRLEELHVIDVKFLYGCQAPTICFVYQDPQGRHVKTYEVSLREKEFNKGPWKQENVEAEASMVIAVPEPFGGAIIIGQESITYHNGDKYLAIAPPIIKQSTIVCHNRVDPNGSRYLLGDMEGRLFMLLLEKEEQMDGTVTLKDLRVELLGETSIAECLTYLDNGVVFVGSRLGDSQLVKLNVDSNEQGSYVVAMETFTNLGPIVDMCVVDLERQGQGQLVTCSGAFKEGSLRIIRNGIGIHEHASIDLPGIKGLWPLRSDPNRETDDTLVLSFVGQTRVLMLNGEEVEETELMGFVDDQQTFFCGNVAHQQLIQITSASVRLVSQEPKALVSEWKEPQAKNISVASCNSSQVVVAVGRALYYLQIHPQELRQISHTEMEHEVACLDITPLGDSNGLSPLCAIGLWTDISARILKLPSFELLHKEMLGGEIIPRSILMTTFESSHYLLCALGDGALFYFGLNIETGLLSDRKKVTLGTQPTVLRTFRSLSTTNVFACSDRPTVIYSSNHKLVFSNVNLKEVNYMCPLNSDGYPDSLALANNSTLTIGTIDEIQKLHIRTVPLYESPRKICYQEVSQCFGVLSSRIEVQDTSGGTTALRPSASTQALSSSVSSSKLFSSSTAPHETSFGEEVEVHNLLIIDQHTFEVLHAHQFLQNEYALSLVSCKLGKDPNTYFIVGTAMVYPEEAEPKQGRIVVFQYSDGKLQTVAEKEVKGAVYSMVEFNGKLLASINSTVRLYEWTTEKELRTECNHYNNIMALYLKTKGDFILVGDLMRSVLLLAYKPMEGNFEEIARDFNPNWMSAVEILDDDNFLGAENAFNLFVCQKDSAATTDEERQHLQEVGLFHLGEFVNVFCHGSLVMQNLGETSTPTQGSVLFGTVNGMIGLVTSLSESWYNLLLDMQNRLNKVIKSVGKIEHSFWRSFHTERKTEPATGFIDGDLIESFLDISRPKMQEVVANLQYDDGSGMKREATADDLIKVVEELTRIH
T1 sequence (Q13619 whole entry partner): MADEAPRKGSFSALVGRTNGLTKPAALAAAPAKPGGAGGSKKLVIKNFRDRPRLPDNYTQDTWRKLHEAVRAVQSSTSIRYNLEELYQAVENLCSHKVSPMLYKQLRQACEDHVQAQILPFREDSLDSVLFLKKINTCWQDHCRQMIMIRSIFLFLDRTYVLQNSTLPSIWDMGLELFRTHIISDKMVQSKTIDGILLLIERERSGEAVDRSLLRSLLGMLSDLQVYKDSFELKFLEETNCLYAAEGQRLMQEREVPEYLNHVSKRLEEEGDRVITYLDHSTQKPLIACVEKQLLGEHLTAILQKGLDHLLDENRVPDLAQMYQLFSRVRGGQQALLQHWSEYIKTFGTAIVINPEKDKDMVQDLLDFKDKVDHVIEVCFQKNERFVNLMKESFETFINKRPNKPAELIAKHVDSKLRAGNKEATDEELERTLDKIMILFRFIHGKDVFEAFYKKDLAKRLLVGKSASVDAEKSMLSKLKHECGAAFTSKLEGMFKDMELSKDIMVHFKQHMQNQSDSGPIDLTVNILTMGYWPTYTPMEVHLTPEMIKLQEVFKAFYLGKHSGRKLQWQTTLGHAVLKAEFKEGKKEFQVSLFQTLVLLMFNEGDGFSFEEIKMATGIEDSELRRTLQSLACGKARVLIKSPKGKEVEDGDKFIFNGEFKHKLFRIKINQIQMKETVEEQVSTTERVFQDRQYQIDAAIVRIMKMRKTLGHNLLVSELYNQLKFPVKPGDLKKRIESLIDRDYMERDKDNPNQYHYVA
T1 sequence (P62877 whole entry partner): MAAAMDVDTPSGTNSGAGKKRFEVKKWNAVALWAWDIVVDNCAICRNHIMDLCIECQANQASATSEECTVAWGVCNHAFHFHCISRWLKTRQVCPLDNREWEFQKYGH

Nc1ccc(F)c2c1C(=S)N(C1CCC(=S)NC1=O)C2=O (stereo not shown) [F-3,6′-DP]
IC50: 2660 nM
